According to publication PMC11240139, “Exploring the antitumor potential of novel quinoline derivatives via tubulin polymerization inhibition in breast cancer; design, synthesis and molecular docking” (RSC Advances, 2024):

Legend:
Assay in all cases: NCI-60 SRB cytotoxicity screen
Format in all cases: cell-based
COLO 205 (colon cancer) = test system: COLO 205 (colon cancer)
OVCAR-4 (ovarian cancer) = test system: OVCAR-4 (ovarian cancer)
SK-OV-3 (ovarian cancer) = test system: SK-OV-3 (ovarian cancer)
SF-295 (CNS cancer) = test system: SF-295 (CNS cancer)
RPMI-8226 (leukemia) = test system: RPMI-8226 (leukemia)
[1] = test system: HOP-92 (non-small cell lung cancer)
[2] = test system: A549/ATCC (non-small cell lung cancer)
HL-60(TB) (leukemia) = test system: HL-60(TB) (leukemia)
SK-MEL-2 (melanoma) = test system: SK-MEL-2 (melanoma)
UACC-257 (melanoma) = test system: UACC-257 (melanoma)
RXF 393 (renal cancer) = test system: RXF 393 (renal cancer)
SNB-75 (CNS cancer) = test system: SNB-75 (CNS cancer)
UO-31 (renal cancer) = test system: UO-31 (renal cancer)
[3] = test system: MDA-MB-231/ATCC (breast cancer)
[4] = test system: HOP-62 (non-small cell lung cancer)
HS 578T (breast cancer) = test system: HS 578T (breast cancer)
CCRF-CEM (leukemia) = conditions: Homo sapiens, five-dose assay
[5] = Homo sapiens, COLO 205, five-dose assay
[6] = Homo sapiens, SF-295, five-dose assay
[7] = Homo sapiens, HOP-92, five-dose assay
[8] = Homo sapiens, single dose 10 μM, read-out: growth inhibition (GI%)
[9] = Homo sapiens, UACC-257, five-dose assay
[10] = Homo sapiens, RXF 393, five-dose assay
[11] = Homo sapiens, UO-31, five-dose assay
[12] = Homo sapiens, HOP-62, five-dose assay

Compound: CCc1cccc2cc(-c3cc(-c4cc(OC)c(OC)c(OC)c4)[nH]c(=O)c3C#N)c(Cl)nc12 [Compound 4c, 4-(2-Chloro-8-ethylquinolin-3-yl)-2-oxo-6-(3,4,5-trimethoxyphenyl)-1,2-dihydropyridine-3-carbonitrile]
- TGI (COLO 205 (colon cancer); COLO 205, five-dose assay): >100 µM
- GI50 (COLO 205 (colon cancer); [5]): 45.6 µM
- LC50 (COLO 205 (colon cancer); [5]): > 100 µM
- inhibition at 10 µM (COLO 205 (colon cancer); Homo sapiens, COLO 205, single dose 10 μM, read-out: growth inhibition (GI%)): < 10%
- GI50 (OVCAR-4 (ovarian cancer); Homo sapiens, OVCAR-4, five-dose assay): 17.2 µM
- CC50 (OVCAR-4 (ovarian cancer); Homo sapiens, OVCAR-4, five-dose assay, read-out: LC50 (the source's name)): > 100 µM
- inhibition at 10 µM (OVCAR-4 (ovarian cancer); Homo sapiens, OVCAR-4, single dose 10 μM, read-out: growth inhibition (GI%)): > 100%
- TGI (OVCAR-4 (ovarian cancer); OVCAR-4, five-dose assay): >100 µM
- growth inhibition (GI%) (OVCAR-4 (ovarian cancer); OVCAR-4, single dose 10 μM): lethal effect
- GI50 (SK-OV-3 (ovarian cancer); Homo sapiens, SK-OV-3, five-dose assay): 26 µM
- CC50 (SK-OV-3 (ovarian cancer); Homo sapiens, SK-OV-3, five-dose assay, read-out: LC50 (the source's name)): > 100 µM
- inhibition at 10 µM (SK-OV-3 (ovarian cancer); Homo sapiens, SK-OV-3, single dose 10 μM, read-out: growth inhibition (GI%)): 61.4%
- TGI (SK-OV-3 (ovarian cancer); SK-OV-3, five-dose assay): >100 µM
- GI50 (SF-295 (CNS cancer); [6]): 19.4 µM
- LC50 (SF-295 (CNS cancer); [6]): > 100 µM
- inhibition at 10 µM (SF-295 (CNS cancer); Homo sapiens, SF-295, single dose 10 μM, read-out: growth inhibition (GI%)): 96.4%
- TGI (SF-295 (CNS cancer); SF-295, five-dose assay): >100 µM
- GI50 (RPMI-8226 (leukemia); Homo sapiens, RPMI-8226, five-dose assay): 5.16 µM
- CC50 (RPMI-8226 (leukemia); Homo sapiens, RPMI-8226, five-dose assay, read-out: LC50 (the source's name)): > 100 µM
- inhibition at 10 µM (RPMI-8226 (leukemia); Homo sapiens, RPMI-8226, single dose 10 μM, read-out: growth inhibition (GI%)): 74.5%
- TGI (RPMI-8226 (leukemia); RPMI-8226, five-dose assay): >100 µM
- TGI ([1]; HOP-92, five-dose assay): 9.68 µM
- growth inhibition (GI%) ([1]; HOP-92, single dose 10 μM): lethal effect
- GI50 [1, 7]: 2.37 µM
- LC50 (lethal concentration 50) [1, 7]: > 100 µM
- inhibition at 10 µM ([1]; Homo sapiens, HOP-92, single dose 10 μM, read-out: growth inhibition (GI%)): > 100%
- GI50 ([2]; Homo sapiens, five-dose assay): 12.2 µM
- CC50 ([2]; Homo sapiens, five-dose assay, read-out: LC50 (the source's name)): > 100 µM
- inhibition at 10 µM [2, 8]: 88.2%
- TGI ([2]; five-dose assay): 48.70 µM
- GI50 (HL-60(TB) (leukemia); Homo sapiens, five-dose assay): 13.4 µM
- LC50 (HL-60(TB) (leukemia); Homo sapiens, five-dose assay): > 100 µM
- inhibition at 10 µM (HL-60(TB) (leukemia); [8]): 71.3%
- TGI (HL-60(TB) (leukemia); five-dose assay): >100 µM
- GI50 (SK-MEL-2 (melanoma); Homo sapiens, SK-MEL-2, five-dose assay): 39.8 µM
- CC50 (SK-MEL-2 (melanoma); Homo sapiens, SK-MEL-2, five-dose assay, read-out: LC50 (the source's name)): > 100 µM
- inhibition at 10 µM (SK-MEL-2 (melanoma); Homo sapiens, SK-MEL-2, single dose 10 μM, read-out: growth inhibition (GI%)): 29.8%
- TGI (SK-MEL-2 (melanoma); SK-MEL-2, five-dose assay): >100 µM
- GI50 (UACC-257 (melanoma); [9]): 42.6 µM
- LC50 (UACC-257 (melanoma); [9]): > 100 µM
- inhibition at 10 µM (UACC-257 (melanoma); Homo sapiens, UACC-257, single dose 10 μM, read-out: growth inhibition (GI%)): 26.5%
- TGI (UACC-257 (melanoma); UACC-257, five-dose assay): >100 µM
- GI50 (RXF 393 (renal cancer); [10]): 2.21 µM
- LC50 (RXF 393 (renal cancer); [10]): 35.4 µM
- inhibition at 10 µM (RXF 393 (renal cancer); Homo sapiens, RXF 393, single dose 10 μM, read-out: growth inhibition (GI%)): > 100%
- TGI (RXF 393 (renal cancer); RXF 393, five-dose assay): 6.69 µM
- growth inhibition (GI%) (RXF 393 (renal cancer); RXF 393, single dose 10 μM): lethal effect
- inhibition at 10 µM (SNB-75 (CNS cancer); Homo sapiens, SNB-75, SNB-75, single dose 10 μM, read-out: growth inhibition (GI%)): > 100%
- GI50 (SNB-75 (CNS cancer); Homo sapiens, SNB-75, five-dose assay): 2.38 µM
- CC50 (SNB-75 (CNS cancer); Homo sapiens, SNB-75, five-dose assay, read-out: LC50 (the source's name)): 52.6 µM
- TGI (SNB-75 (CNS cancer); SNB-75, five-dose assay): 16.90 µM
- GI50 (UO-31 (renal cancer); [11]): 12.6 µM
- LC50 (50% lethal concentration) (UO-31 (renal cancer); [11]): > 100 µM
- inhibition at 10 µM (UO-31 (renal cancer); Homo sapiens, UO-31, single dose 10 μM, read-out: growth inhibition (GI%)): > 100%
- TGI (UO-31 (renal cancer); UO-31, five-dose assay): >100 µM
- growth inhibition (GI%) (UO-31 (renal cancer); UO-31, single dose 10 μM): lethal effect
- GI50 ([3]; Homo sapiens, MDA-MB-231): 14.5 µM
- inhibition at 10 µM ([3]; Homo sapiens, MDA-MB-231, read-out: growth inhibition (GI%)): > 100%
- CC50 ([3]; Homo sapiens, MDA-MB-231/ATCC, five-dose assay, read-out: LC50 (the source's name)): 69.8 µM
- TGI ([3]; MDA-MB-231/ATCC, five-dose assay): 31.80 µM
- growth inhibition (GI%) ([3]; MDA-MB-231/ATCC, single dose 10 μM): lethal effect
- TGI ([4]; HOP-62, five-dose assay): 78.90 µM
- GI50 [4, 12]: 20.7 µM
- LC50 [4, 12]: > 100 µM
- inhibition at 10 µM ([4]; Homo sapiens, HOP-62, single dose 10 μM, read-out: growth inhibition (GI%)): 87.9%
- GI50 (HS 578T (breast cancer); Homo sapiens, five-dose assay): 2.38 µM
- LC50 (50% lethal concentration) (HS 578T (breast cancer); Homo sapiens, five-dose assay): > 100 µM
- inhibition at 10 µM (HS 578T (breast cancer); [8]): > 100%
- TGI (HS 578T (breast cancer); five-dose assay): 7.26 µM
- growth inhibition (GI%) (HS 578T (breast cancer); single dose 10 μM): lethal effect
- GI50 (CCRF-CEM (leukemia)): 12 µM
